Results as given in patent US20250009756A1 (Acerus Biopharma Inc., priority 2012, published 2025).
“Also recorded” adds a separate entry of the source.

What was measured:
pKa of testosterone = settings: deduced from the molecular structure
[1] = Solubility of testosterone in water, solvents, oils and vehicles

Q: With `C[C@]12CC[C@H]3[C@@H](CCC4=CC(=O)CC[C@@]43C)[C@@H]1CC[C@@H]2O` [Testosterone, 17ß-Hydroxyandrost-4-en-3-one] as the compound, how does the pKa (pKa of testosterone) read?
A: Its pKa is “no pKa value in the range 1-14”.

Q: What about the Solubility in oils ([1]; castor oil) of the same compound?
A: Its Solubility in oils is “up to 4%”.

Q: And the “Solubility in castor oil” value ([1]; castor oil pure, maximum)?
A: The value was 3.6%.

Q: And the “Solubility in castor oil” value ([1]; castor oil with 4% Labrafil)?
A: Its value is ~3.36%.

Q: And the Solubility in oils ([1]; corn oil)?
A: Its Solubility in oils is 0.5%.

Q: What about the Solubility in oils ([1]; cottonseed oil) of the same compound?
A: Its Solubility in oils is 0.7%.

Q: What about the Solubility in oils ([1]; isopropylmyristate) of the same compound?
A: Its Solubility in oils is 0.8%.

Q: And the Solubility in oils ([1]; peanut oil)?
A: Its Solubility in oils is 0.5%.

Q: And the “Solubility (descriptive)” value ([1]; solvent named in the value)?
A: Its value is “freely soluble in methanol and ethanol; also recorded: soluble in acetone and isopropanol; also recorded: insoluble in n-heptane”.

Q: And the Solubility in oils ([1]; soybean oil)?
A: Its Solubility in oils is 0.6%.

Q: What about the “Solubility in castor oil” value ([1]; with fumed silica (Aerosil, CabOsil) and 4.0% Labrafil) of the same compound?
A: Its value is “up to 4.5%”.
